Here are results for 21 compounds from paper PMC6225304, “Design, Synthesis, and Neuroprotective Effects of a Series of Pyrazolines against 6-Hydroxydopamine-Induced Oxidative Stress” (Molecules : A Journal of Synthetic Chemistry and Natural …, 2018).

pIC50: −log10 of the molar value. Where “and” joins values, the source holds several entries; their conditions need not be identical. Identical values can stand only once. Like-named read-outs stand apart in the source and are kept apart here.

Data set [1] has as its system differentiated PC-12 Adh cells. Briefly: WST-1 cell viability assay for non-cytotoxic concentrations. In kind it is cell-based, rat. The conditions noted are these: for IC50: 24 h treatment, WST-1. The method, then:
(§1) PC-12 Adh cells were cultured in 10% horse serum, 5% fetal bovine serum, and 1% penicillin-streptomycin containing DMEM growth medium, at 37 °C in a humidified incubator with 5% CO2. The proliferating cells were passaged 1:2 to new 25 and/or 75 cm^2 flasks and cell stocks were prepared in order to use in future experiments. In order to induce PC-12 Adh cell differentiation into neuronal phenotype, growth medium was changed with 1% fetal bovine serum, 1% penicillin-streptomycin and 100 nM NGF containing DMEM differentiation medium.
Differentiated PC-12 Adh cells were stained with Trypan blue solution and counted by a cell counter device (Cedex XS, Innovatis, Malvern, PA, USA) in order to determine the appropriate cell numbers before the experiments.
In order to obtain non-cytotoxic concentrations of the compounds, the viability of neuronal cells was measured by using 2-(4-iodophenyl)-3-(4-nitrophenyl)-5-(2,4-disulfophenyl)-2H-tetrazolium sodium salt (WST-1) assay (Roche, Mannheim, Germany). The test is based on the cleavage of the tetrazolium salt WST-1 in formazan by mitochondrial dehydrogenases in viable cells. The formazan dye was quantified in a scanning multiwell spectrophotometer by measuring the absorbance of the dye at 420 nm. The differentiated PC-12 Adh cells were scratched and plated onto 96-well culture plates at 5 × 10^3 density per well. […] After the incubation period, the cell proliferation reagent WST-1 (10 μL per well) was added to the wells; and absorbances were measured after 3 h using a Cytation 3 cell imaging multi-mode reader at 420 nm (BioTek, Winooski, VT, USA). The measured absorbances directly correlated to the number of viable cells.
On the technique in general: Tetrazolium assays rely on reduction of a dye to a coloured formazan, in cell work by metabolically active cells.

Data set [2] concerns differentiated PC-12 Adh cells. Briefly: Neuroprotective activity against 6-OHDA-induced neurotoxicity (WST-1 cell viability). It is filed as cell-based, rat. The conditions noted are these: for induction in cell viability percentage compared with the 6-OHDA-positive control group (statistical analysis): 100 µg/mL, one-way ANOVA and Tukey’s post hoc test, ** p < 0.01. On the procedure: as §1
(§2) The differentiated PC-12 Adh cells were scratched and plated onto 96-well culture plates at 5 × 10^3 density per well. […] After 24 h, the neuroprotective effects of the compounds were determined by WST-1 cell viability assay as explained above. The graphics were drawn according to the cell viability, which was expressed as percentage of the surviving control cells in the study.
(§3) The graphics were drawn with Graphpad Prism 6.0 software and statistically analyzed using one-way ANOVA and Tukey’s post hoc test.

Data set [3] is described as follows: Neuroprotective activity against 6-OHDA-induced neurotoxicity (WST-1 cell viability). It is filed as cell-based, rat. The conditions noted are these: rat, 150 µM 6-OHDA alone for 24 h (positive control); % of the control. On the procedure: as §1, §2, §3
[4] abbreviates: Rattus norvegicus, differentiated PC-12 Adh cells, read-out: IC50 (cell viability assay).
Where [5] appears, read: 100 µg/mL compound for 6 h, then 150 µM 6-OHDA for 24 h.

As usually defined, the IC50 is the concentration that gives 50% inhibition. One may read the melting point as the temperature of the solid-liquid transition. As to `Cc1ccc(/C=C/C(=O)c2ccco2)cc1` [Compound 1, 1-(2-Furanyl)-3-aryl-2-propen-1-one], the melting point was 111 to 113 °C. Further, in data set [1] (setting [4]), the IC50 turned out to be 12 µg/mL. Further, the “cytotoxicity (effect on cell viability, in words)” value in data set [1] (differentiated PC-12 Adh cells, 100 µg/mL) is “highly cytotoxic”. In addition, the “reduction in cell viability” value in data set [2] (10 µg/mL compound for 6 h, then 150 µM 6-OHDA for 24 h) was 40%. Further, the “reduction in cell viability” value in data set [2] (setting [5]) turned out to be 97%.

Consider `O=C(/C=C/c1ccc2c(c1)OCO2)c1cccs1` [Compound 2, 1-(2-Thienyl)-3-aryl-2-propen-1-one], for which the half-maximal inhibitory concentration (IC50) in data set [1] (setting [4]) is 345 µg/mL. The “reduction in cell viability” value in data set [2] (setting [5]) was determined as 34.1%.

Take `Cc1ccc(C2CC(c3ccco3)=NN2c2ccccc2)cc1` (centres unmarked) [Compound 3a, 1-Phenyl-3-(2-furanyl)-5-(4-methylphenyl)-2-pyrazoline]: in data set [1] (setting [4]), the IC50 is greater than 400 µg/mL.

As to `Cc1ccc(C2CC(c3ccco3)=NN2c2ccc(C#N)cc2)cc1` (centres unmarked) [Compound 3b, 1-(4-Cyanophenyl)-3-(2-furanyl)-5-(4-methylphenyl)-2-pyrazoline], the IC50 in data set [1] (setting [4]) was found to be 204 µg/mL.

With `Cc1ccc(C2CC(c3ccco3)=NN2c2ccc(F)cc2)cc1` (centres unmarked) [Compound 3c, 1-(4-Fluorophenyl)-3-(2-furanyl)-5-(4-methylphenyl)-2-pyrazoline], the IC50 in data set [1] (setting [4]) came to 353 µg/mL.

As to `Cc1ccc(C2CC(c3ccco3)=NN2c2ccc(Cl)cc2)cc1` (centres unmarked) [Compound 3d, 1-(4-Chlorophenyl)-3-(2-furanyl)-5-(4-methylphenyl)-2-pyrazoline], the half-inhibitory concentration (IC50) in data set [1] (setting [4]) is greater than 400 µg/mL.

Take `Cc1ccc(C2CC(c3ccco3)=NN2c2ccc(Br)cc2)cc1` (centres unmarked) [Compound 3e, 1-(4-Bromophenyl)-3-(2-furanyl)-5-(4-methylphenyl)-2-pyrazoline]: the IC50 in data set [1] (setting [4]) was determined as 398 µg/mL.

Regarding `Cc1ccc(C2CC(c3ccco3)=NN2c2ccc(C)cc2)cc1` (centres unmarked) [Compound 3f, 1-(4-Methylphenyl)-3-(2-furanyl)-5-(4-methylphenyl)-2-pyrazoline], the IC50 in data set [1] (setting [4]) is greater than 400 µg/mL.

Regarding `COc1ccc(N2N=C(c3ccco3)CC2c2ccc(C)cc2)cc1` (centres unmarked) [Compound 3g, 1-(4-Methoxyphenyl)-3-(2-furanyl)-5-(4-methylphenyl)-2-pyrazoline], in data set [1] (setting [4]), the concentration for half-maximal inhibition (IC50) is greater than 400 µg/mL.

For the compound `Cc1ccc(C2CC(c3ccco3)=NN2c2ccc(S(C)(=O)=O)cc2)cc1` (centres unmarked) [Compound 3h, 1-(4-Methylsulfonylphenyl)-3-(2-furanyl)-5-(4-methylphenyl)-2-pyrazoline], the IC50 in data set [1] (setting [4]) is greater than 400 µg/mL. For the same compound, the “reduction in cell viability” value in data set [2] (setting [5]) is 20%. For the same compound, the “induction in cell viability percentage compared with the 6-OHDA-positive control group (statistical analysis)” value in data set [2] was “significant”.

For `Cc1ccc(C2CC(c3ccco3)=NN2c2ccc(S(N)(=O)=O)cc2)cc1` (centres unmarked) [Compound 3i, 1-(4-Sulfonamidophenyl)-3-(2-furanyl)-5-(4-methylphenyl)-2-pyrazoline], the half-inhibitory concentration (IC50) in data set [1] (setting [4]) amounted to 205 µg/mL.

In the case of `c1ccc(N2N=C(c3cccs3)CC2c2ccc3c(c2)OCO3)cc1` (centres unmarked) [Compound 4a, 1-Phenyl-3-(2-thienyl)-5-(1,3-benzodioxol-5-yl)-2-pyrazoline], the concentration for half-maximal inhibition (IC50) in data set [1] (setting [4]) was greater than 400 µg/mL.

Regarding `N#Cc1ccc(N2N=C(c3cccs3)CC2c2ccc3c(c2)OCO3)cc1` (centres unmarked) [Compound 4b, 1-(4-Cyanophenyl)-3-(2-thienyl)-5-(1,3-benzodioxol-5-yl)-2-pyrazoline], the IC50 in data set [1] (setting [4]) is greater than 400 µg/mL.

With `Fc1ccc(N2N=C(c3cccs3)CC2c2ccc3c(c2)OCO3)cc1` (centres unmarked) [Compound 4c, 1-(4-Fluorophenyl)-3-(2-thienyl)-5-(1,3-benzodioxol-5-yl)-2-pyrazoline], the IC50 in data set [1] (setting [4]) was greater than 400 µg/mL.

Regarding `Clc1ccc(N2N=C(c3cccs3)CC2c2ccc3c(c2)OCO3)cc1` (centres unmarked) [Compound 4d, 1-(4-Chlorophenyl)-3-(2-thienyl)-5-(1,3-benzodioxol-5-yl)-2-pyrazoline], the 50% inhibitory concentration (IC50) in data set [1] (setting [4]) was greater than 400 µg/mL.

Take `Brc1ccc(N2N=C(c3cccs3)CC2c2ccc3c(c2)OCO3)cc1` (centres unmarked) [Compound 4e, 1-(4-Bromophenyl)-3-(2-thienyl)-5-(1,3-benzodioxol-5-yl)-2-pyrazoline]: in data set [1] (setting [4]), the IC50 is greater than 400 µg/mL.

Regarding `Cc1ccc(N2N=C(c3cccs3)CC2c2ccc3c(c2)OCO3)cc1` (centres unmarked) [Compound 4f, 1-(4-Methylphenyl)-3-(2-thienyl)-5-(1,3-benzodioxol-5-yl)-2-pyrazoline], the IC50 in data set [1] (setting [4]) stood at 239 µg/mL.

With `COc1ccc(N2N=C(c3cccs3)CC2c2ccc3c(c2)OCO3)cc1` (centres unmarked) [Compound 4g, 1-(4-Methoxyphenyl)-3-(2-thienyl)-5-(1,3-benzodioxol-5-yl)-2-pyrazoline], in data set [1] (setting [4]), the IC50 turned out to be 252 µg/mL.

For `CS(=O)(=O)c1ccc(N2N=C(c3cccs3)CC2c2ccc3c(c2)OCO3)cc1` (centres unmarked) [Compound 4h, 1-(4-Methylsulfonylphenyl)-3-(2-thienyl)-5-(1,3-benzodioxol-5-yl)-2-pyrazoline], the IC50 in data set [1] (setting [4]) is greater than 400 µg/mL. Besides, in data set [2] (setting [5]), the “reduction in cell viability” value is 23%. Also, the “induction in cell viability percentage compared with the 6-OHDA-positive control group (statistical analysis)” value in data set [2] was “significant”.

Turning to `NS(=O)(=O)c1ccc(N2N=C(c3cccs3)CC2c2ccc3c(c2)OCO3)cc1` (centres unmarked) [Compound 4i, 1-(4-Sulfonamidophenyl)-3-(2-thienyl)-5-(1,3-benzodioxol-5-yl)-2-pyrazoline], in data set [1] (setting [4]), the IC50 is greater than 400 µg/mL.

What is called pIC50 is the IC50 on a negative log10 scale, so that one unit is a factor of ten. Broadly, the viability is the share of living cells, or the viability signal relative to a control. A high value points to better survival. `NCCc1cc(O)c(O)cc1O` [Compound 6-OHDA, 6-hydroxydopamine]: in data set [1] (Rattus norvegicus, PC-12, 24 h, read-out: IC50 (cell viability assay)), the negative-log IC50 (pIC50) was 3.82. The compound also gave a viability at 24 h, 150 µM in data set [3] of 57%. The “reduction in cell viability” value in data set [2] (150 µM 6-OHDA alone for 24 h (positive control)) is 42.13% and 43% and 42%.
